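Tested at 5 concentrations; 48 h exposure; 96-well plates; endpoints linearly interpolated, else capped at highest concentration. The concentration for 50% growth inhibition is given as GI50. TGI denotes the concentration required for complete inhibition of growth.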
Columns and labels:
Assay in all cases: inhibition of tumour cell growth, NCI panel, 48 h
[1] = tested on: A549 NSCLC
[2] = tested on: ACHN renal
[3] = tested on: IGROV1 ovarian
[4] = tested on: NCI-H226 lung
[5] = tested on: SNB-75 CNS
[6] = tested on: U251 CNS
[7] = tested on: CCRF-CEM leukemia
[8] = tested on: COLO 205 colon
[9] = tested on: DU-145 prostate
[10] = tested on: MDA-MB-231 breast

SMILES	TGI [1] [µM]	TGI [2] [µM]	TGI [3] [µM]	TGI [4] [µM]	TGI [5] [µM]	TGI [6] [µM]	TGI [7] [µM]	TGI [8] [µM]	GI50 [1] [µM]	GI50 [2] [µM]	GI50 [7] [µM]	GI50 [8] [µM]	GI50 [9] [µM]	TGI [9] [µM]	GI50 [3] [µM]	GI50 [10] [µM]	TGI [10] [µM]	GI50 [4] [µM]	GI50 [6] [µM]	GI50 [5] [µM]
CCOC(=O)C1=C(C)N(NC(=O)c2ccccc2)C2(O)CCCC12C(=O)OCC (stereo unspecified)	> 100	> 100	> 100	> 100	> 100	> 100	–	–	–	–	–	–	–	–	–	–	–	–	–	–
CSC(=S)NNC(=O)c1ccncc1	> 100	36.2	32.7	52.6	65.7	41.9	43.1	> 100	–	–	–	–	–	–	–	–	–	–	–	–
O=C1c2ccccc2C(=O)c2nc(-c3ccccc3)c(-c3ccccc3)nc21	> 84.2	> 100	–	> 31.6	29.2	> 100	> 100	> 100	–	–	–	–	–	–	–	–	–	–	–	–
COC(=O)C1C(=O)O[C@@H](c2ccc(OC)cc2OC)C1C(=O)OC (stereo partly specified)	> 100	> 100	> 100	> 100	> 100	> 100	> 100	> 100	–	–	–	–	–	–	–	–	–	–	–	–
O=C(O)/C(Cl)=C(\Cl)C(=O)Nc1ccccc1	> 100	> 100	> 100	> 100	> 100	> 100	> 100	> 100	–	–	–	–	–	–	–	–	–	–	–	–
CC1C(=O)N(C)C2(CO)C(=O)O[C@H](C)C12O (stereo partly specified)	> 100	–	> 100	–	–	> 100	–	> 100	–	–	–	–	–	–	–	–	–	–	–	–
COc1cc2c(cc1OC)[C@@]1(C)C(=O)c3cc4c(cc3[C@H]1N(C)C2=O)OCO4	> 100	> 100	> 100	> 100	–	> 100	> 100	> 100	62.9	52.2	38	> 100	58.1	> 100	33.9	25	> 100	44.1	34.3	–
CCC[CH2][Sn]([CH2]CCC)([S]C1=NCCS1)[S]C1=NCCS1	3.55	1.31	2.74	2.12	1.39	1.86	0.226	1.5	1.85	0.368	0.0231	0.331	–	–	1.3	–	–	0.741	0.567	0.0857
CC1OC(O)CC(OC(=O)c2ccccc2)C1OC(=O)c1ccccc1 (stereo unspecified)	> 100	> 100	> 100	–	–	> 100	38.2	80.9	–	–	–	–	–	–	–	–	–	–	–	–
Cc1ccc(S(=O)(=O)N/N=C(\C(=O)Nc2cccc([N+](=O)[O-])c2)c2nc3ccc([N+](=O)[O-])cc3[nH]c2=O)cc1	> 100	> 100	> 100	> 100	–	> 100	> 100	> 100	–	–	–	–	–	–	–	–	–	–	–	–
O=C(C=Nc1ccccc1C(=O)[O-])c1cccs1.O=C(C=Nc1ccccc1C(=O)[O-])c1cccs1.[Cu+2]	> 100	> 100	> 100	–	> 10	> 100	> 10	> 100	–	–	–	–	–	–	–	–	–	–	–	–
COc1ccc2c(c1)Cc1c-2c(NN)nc2ccccc12	> 100	> 100	> 100	> 100	> 100	68.7	–	> 100	33.6	44.7	–	22.1	32	> 100	24.6	36	> 100	64	21.5	42.8
ON(CCc1ccccn1)Cc1ccccc1	> 100	> 100	> 100	> 100	> 100	> 100	–	> 100	–	–	–	–	–	> 100	–	–	> 100	–	–	–
CCCCCCCCCC(=O)OCC1OC(n2cc(F)c(=O)[nH]c2=O)C(N)C(OC(=O)CCCCCCCCC)C1O (stereo unspecified)	34.1	> 100	> 100	–	34.4	32.3	50.4	31.2	–	–	–	–	–	–	–	–	–	–	–	–
CCC(=C(c1ccc(OCc2ccccc2)cc1)c1ccc(OCc2ccccc2)cc1)c1ccc(OC)cc1	> 100	> 100	> 100	> 100	> 100	> 100	> 100	> 100	–	–	–	–	–	–	–	–	–	–	–	–
O=C(CC1(O)C(=O)Nc2c(Cl)cc(Cl)cc21)c1ccc2ccccc2c1 (stereo unspecified)	18.2	28.7	23.1	–	13.5	18.7	39	21.6	–	–	–	–	–	–	–	–	–	–	–	–
C=CCN(N=O)C(=O)N(CCC)CCCCC(NC(C)=O)C(=O)NCc1ccccc1 (stereo unspecified)	> 100	> 100	> 100	> 100	> 100	> 100	> 100	> 100	–	–	–	–	–	–	–	–	–	–	–	–

SMILES	TGI [1] [µM]	TGI [2] [µM]	TGI [3] [µM]	TGI [4] [µM]	TGI [5] [µM]	TGI [6] [µM]	TGI [7] [µM]	TGI [8] [µM]	GI50 [1] [µM]	GI50 [2] [µM]	GI50 [7] [µM]	GI50 [8] [µM]	GI50 [9] [µM]	TGI [9] [µM]	GI50 [3] [µM]	GI50 [10] [µM]	TGI [10] [µM]	GI50 [4] [µM]	GI50 [6] [µM]	GI50 [5] [µM]
CCN(CC)CCOc1cc2c(C(=O)OC)c(C)oc2cc1C(C)=O	38.4	18.3	33	25.2	–	10.7	7.59	26.6	18.5	5.65	2.92	8.27	–	–	8.53	10.8	23.5	11.4	2.75	–
COc1ccc2c(c1)[n+]([O-])c(-c1nc3ccccc3s1)c(N)[n+]2[O-]	> 100	> 100	> 100	> 100	> 100	> 100	–	> 100	–	–	–	–	–	–	–	–	–	–	–	–
COC(=O)C1=CC2OC1(C)C1(CC1)C2=O (stereo unspecified)	70	34.4	35.9	43.5	50	> 100	23.2	33.5	–	–	–	–	–	–	–	–	–	–	–	–
COc1ccc(OC)c2cc(C3(C)SCCCS3)ccc12	> 100	> 100	> 100	–	> 100	> 100	> 100	> 100	–	–	–	–	–	–	–	–	–	–	–	–
O=C(CC(=O)C(F)(F)F)c1csc2ccccc12	> 100	> 100	> 100	–	–	> 100	> 100	> 100	–	–	–	–	–	–	–	–	–	–	–	–
CC12CC3CC(C)(C1)CC(N=[N+]=[N-])(C3)C2	> 100	> 100	> 100	> 100	> 100	> 100	> 100	> 100	–	–	–	–	–	–	–	–	–	–	–	–
COC(=O)C1=CC2OC13CC1CCC3(C2=O)C1(C)C (stereo unspecified)	92.7	21.2	39.9	34.2	19.9	25.6	14.6	29.8	–	–	–	–	–	–	–	–	–	–	–	–
Cc1ccc(C2=NO[C@@H]3C(=O)N(c4ccc(Cc5ccc(N6C(=O)[C@H]7C(c8ccc(C)cc8)=NO[C@H]7C6=O)cc5)cc4)C(=O)[C@H]23)cc1	> 100	> 100	> 100	> 100	> 100	> 100	> 100	> 100	–	–	–	–	–	–	–	–	–	–	–	–
CN=S(=O)(C[C@]1(O)CC2OC1C1OC(C)(C)OC21)c1ccccc1 (stereo partly specified)	> 100	> 100	> 100	> 100	> 100	> 100	> 100	> 100	–	–	–	–	–	–	–	–	–	–	–	–
CC(=O)Nc1ccc(/C=C/C(=O)c2sc(C(N)=S)nc2C)cc1	> 100	–	> 100	> 100	> 100	> 100	> 100	> 100	–	–	–	–	–	–	–	–	–	–	–	–
COc1ccccc1NC(=O)C1=C(C)NC(C)=C(C(=O)Nc2ccccc2OC)C1c1ccccc1OC	> 100	> 100	> 100	> 100	69	> 100	> 100	> 100	–	–	–	–	–	–	–	–	–	–	–	–
Cc1c(Cl)ccc2c1NC(=O)C2(O)C1Cc2ccccc2C1=O (stereo unspecified)	> 100	> 100	> 100	> 100	–	> 100	> 100	> 100	–	–	–	–	–	–	–	–	–	–	–	–
COC(=O)C(=O)C(C(=O)C(=O)Nc1cc([N+](=O)[O-])ccc1[N+](=O)[O-])c1nc2ccc(C(=O)c3ccccc3)cc2[nH]c1=O (stereo unspecified)	> 100	> 100	> 100	89	–	> 100	83.4	> 100	–	–	–	–	–	–	–	–	–	–	–	–
CCN(CC)c1ccc2c(c1)N=C1N=CC=CN1C2(c1ccc(N(C)C)cc1)c1ccc(N(C)C)cc1	28	16.1	26.9	27.2	24.4	16	23.5	6.53	–	–	–	–	–	–	–	–	–	–	–	–
O=C(NCC#CCO)C(F)(F)F	> 100	> 100	> 100	> 100	–	> 100	–	–	–	–	–	–	–	–	–	–	–	–	–	–
O=C(Cn1ccnc1[N+](=O)[O-])NCC(F)(F)C(F)(F)F	> 100	> 100	> 100	> 100	> 100	> 100	–	> 100	> 100	> 100	–	> 100	> 100	> 100	> 100	> 100	> 100	> 100	> 100	> 100
Nc1nc(N)c(-c2ccc(Cl)cc2)c(CCC(=O)Nc2cccc(C(F)(F)F)c2)n1	> 100	> 100	> 100	> 100	> 100	> 100	> 100	> 100	–	–	–	–	–	–	–	–	–	–	–	–
